“And” between values parts separate entries of the source, which are not always exact repeats. Identical values can stand only once. “Also recorded” adds a separate entry of the source. Like-named read-outs stand apart in the source and are kept apart here.
Columns and labels:
CAL33 = experiment: XTT cell viability assay, CAL33 HNSCC cells; format: cell-based, human; conditions: for IC50: Homo sapiens, CAL-33
Description: (§1) Fifty microliters of sodium 3′-[1-phenylaminocarbonyl)-3,4-tetrazolium]-bis(4-methoxy-6-nitro) benzene sulfonic acid hydrate (XTT) reagent was added to each well. The assay is based on the cleavage of the yellow tetrazolium salt XTT to form an orange formazan dye by metabolically active cells. This bio-reduction occurs in viable cells only and is related to NAD(P)H production through glycolysis. Therefore, the amount of formazan dye measured at 490 nm directly correlated with the number of metabolically active cells reflecting cell proliferation and viability. Each assay was performed in quadruplicate.

[1] = system: ERK/MAP Kinase signaling pathway; experiment: p-ERK immunoblotting in HuVEC; format: cell-based, human; conditions: 5 µM C29 1 h, CXCL5 50 ng/ml 10 min
Description: (§2) Cells were lysed in buffer containing 3% SDS, 10% glycerol and 0.825 mM Na2HPO4. 30 to 50 μg of proteins separated on 10% SDS-PAGE, transferred onto a PVDF membrane and then exposed to the appropriate antibodies. Proteins were visualized with the ECL system using horseradish peroxidase-conjugated anti-rabbit or anti-mouse antibodies.

[2] = Hematological, renal and hepatic toxicity; format: in vivo
786-O cells = experiment: Ectopic model of RCC (786-O xenograft); format: in vivo, nude (nu/nu) female mice; conditions: C29 100 µg i.p. three per week; danirixin 200 µg three times a week; sunitinib 50 mg/kg oral gavage five times a week
Description: (§3) These studies were carried out in strict accordance with the recommendations in the Guide for the Care and Use of Laboratory Animals. Our experiments were approved by the ''Comité National Institutionnel d'Ethique pour l'Animal de Laboratoire'' (reference: PEA-255 and PEA-277). Cells were injected subcutaneously into the flank of 5-week-old nude (nu/nu) female mice (Janvier). When the tumor reached 100 mm^3, mice were treated. The tumor volume was determined with a caliper (v = L*l2*0.5).
2- Seven million 786-O cells were injected subcutaneously.

K562 = experiment: XTT cell viability assay, K562 CML cells; format: cell-based, human; conditions: Homo sapiens, K562, 48 h, SD 10%, mean of three experiments
Description: as §1

OCI-AML2 = experiment: XTT cell viability assay, OCI-AML2 AML cells; format: cell-based, human; conditions: Homo sapiens, OCI-AML2, 48 h, SD 10%, mean of three experiments, read-out: IC50 L2 (AML)
Description: as §1

[3] = In vitro (in cellulo) stability assay; format: in vitro ADME, human; conditions: 786-O cells, 2.5 µM, 24 h at room temperature, UPLCMS/MS
Description: The in vitro stability was determined as followed: 786-O cells were treated with 2.5 µM of compound C29 for the defined time, then lysed with methanol. The lysates were filtered and analyzed by UPLCMS/MS.

[4] = system: primary kidney tumor cells (TF); experiment: Cell viability, primary kidney tumor cells TF; format: cell-based
Description: as §1
(§4) For the experiments with C29, we confirmed all the results by evaluating the cell viability. Cell viability and cell death was assessed using the ADAM-MC apparatus (NanoEnTek, Guro-gu, Seoul, Korea) based on fluorescent propidium iodide staining according to the manufacturer's instructions.
(§5) To determine the selectivity of the activity of the substances tested, the selectivity index (SI) was calculated according to the equation previously described where SI = IC50 of a compound in a normal cell line/IC50 of the same compound in cancer cell line. The IC50 is the concentration required to kill 50% of the cell population.

A498 cells = experiment: Ectopic model of RCC (A498 xenograft); format: in vivo, nude (nu/nu) female mice
Description: One microgram of total RNA was used for the reverse transcription, using the QuantiTect Reverse Transcription kit (QIAGEN, Hilden, Germany), with blend of oligo (dT) and random primers to prime first-strand synthesis. SYBR master mix plus (Eurogentec) was used for qPCR. The mRNA level was normalized to 36B4 mRNA. The sequences of oligo nucleotides used in our experiments are describe in Table S1.
as §3
1-Seven million A498 cells were injected subcutaneously. Mice were treated five times a week for 4 weeks, by gavage with placebo (dextrose water vehicle) or C29 (50 mg/kg).
Sections of formol-fixed and paraffin-embedded tumors were incubated with monoclonal anti-Ki67 (clone MIB1, DAKO) or anti-CD31 (clone MEC 13.3, BD Pharmingen) antibodies. A biotinylated secondary antibody (DAKO) was applied and binding was detected with the substrate diaminobenzidine against a hematoxylin counterstain.

A498 = experiment: XTT cell viability assay, A498 RCC cells; format: cell-based, human; conditions: for IC50: Homo sapiens, A498
Description: as §1

[5] = system: primary normal kidney cells (15S); experiment: Cell viability, primary normal kidney cells; format: cell-based
Description: as §1, §4, §5

[6] = Pharmacokinetic parameters after oral administration; format: in vivo; conditions: plasma, CD-1 mice, oral gavage 50 mg/kg
Description: The in vivo pharmacokinetic parameters were determined in CD-1 mice at a dose of 50 mg/kg after oral administration. The plasma samples (400 µL) were mixed with acetonitrile (1 mL) to precipitate the proteins and extract the compound. After mixing and sonication, proteins were precipitated by centrifugation and the supernatants were analyzed by UPLCMS/MS.

[7] = system: ERK/MAP Kinase and PI3K/AKT signaling pathways; experiment: p-ERK and p-AKT immunoblotting in RCC and HNSCC cells; format: cell-based, human; conditions: naive and resistant RCC and HNSCC cells, 2.5 µM, 1 h to 48 h
Description: as §2

[8] = C29 100mg/kg oral gavage, three weeks, ns vs CT

basal and CXCL5-dependent ERK/MAP Kinase signaling (p-ERK) [1]: inhibition
IC50 (K562): 2000 nM
IC50 (OCI-AML2): 5 µM
IC50 ([4]; CXCR1+/CXCR2+): 3.2 µM
weight loss of the animals, RCC model (A498 cells; 50 mg/kg gavage): did not observe any weight loss
half-life ([6]; CD-1, mouse, po, 50 mg/kg, formulated at 7.6 mg/mL, read-out: half-life (t ½)): 190 min
AUC ([6]; mouse): ~1420 ng·h/mL
Cmax ([6]; mouse): 900 ng/mL and 2.6 µM
Tmax ([6]; mouse): 30 min
AUC(0-t) ([6]; mouse, read-out: AUC last PO (converted)): 1420 ng·h/mL
SMILES: O=C(Nc1cccc(Cl)c1)Nc1nc2ccc([N+](=O)[O-])cc2s1 [C29]
IC50 (CAL33; CXCR1+/CXCR2+, read-out: IC50 CAL33): 4 µM
IC50 (CAL33; XTT assay, 48 h, SD 10%, mean of three experiments, read-out: IC50 33 (HNSCC)): 4 µM
Selectivity index CAL33 (CAL33; SI = IC50 in normal cells (15S)/IC50 in CAL33): 3.13
hematological, renal or hepatic toxicity ([2]; 100mg/kg by oral gavage five times a week for three weeks): did not induce hematological, renal or hepatic toxicity
Basophils [2, 8]: 0.07089 ± 0.02 k/µl
Eosinophils [2, 8]: 0.1760 ± 0.04 k/µl
Hematocrit [2, 8]: 26.22 ± 2.45%
Hemoglobin [2, 8]: 14.67 ± 1.22 g/dL
Leucocytes [2, 8]: 4.239 ± 0.60 k/µl
Lymphocytes [2, 8]: 2.943 ± 0.38 k/µl
Mean Corpuscular Volume [2, 8]: 112.0 ± 1.054 fL
Mean corpuscular hemoglobin [2, 8]: 31.46 ± 0.79 pg
Mean platelet volume [2, 8]: 12.81 ± 0.08 fL
Monocytes [2, 8]: 0.2664 ± 0.04 k/µl
Neutrophils [2, 8]: 0.6760 ± 0.11 k/µl
Platelets [2, 8]: 375.7 ± 77.93 k/µl
Red blood cells [2, 8]: 10.33 ± 0.98 M/µl
efficacy on tumor growth, 786-O xenograft (786-O cells): as efficient as a dose of 50 mg/kg administered by oral gavage
stability in cellulo (degradation) [3]: No degradation; also recorded: absence of degradation
proliferation of primary kidney tumor cells TF ([4]; Figure S8A-B): significantly decreased
Selectivity index TF ([4]; SI = IC50 in normal cells (15S)/IC50 in TF): 3.91
mRNA level of murine CD31, experimental RCC (A498 cells): decreased
decrease in the tumor weight, RCC (A498 cells; 50 mg/kg gavage): 40%
proliferation marker Ki-67, experimental RCC (A498 cells; 50 mg/kg gavage): decreased
decrease of the tumor volume at the end of the experiment, RCC (A498 cells; 50 mg/kg gavage five times a week for 4 weeks): more than 65%
PI3K/AKT and ERK pathways in tumor lysates, experimental RCC (A498 cells; immunoblotting): inhibited PI3K/AKT but not the ERK pathway
mRNA levels of ERL+CXCL cytokines (CXCL5/7/8), experimental RCC (A498 cells; qPCR, VEGFA not decreased): significantly decreased
IC50 (A498; CXCR1+/CXCR2+, read-out: IC50 A498): 2500 nM
IC50 (A498; XTT assay, 48 h, SD 10%, mean of three experiments, read-out: IC50 498 (Kidney RCC)): 2500 nM
Selectivity index A498 (A498; SI = IC50 in normal cells (15S)/IC50 in A498): 5
IC50 ([5]; CXCR1-/CXCR2-, normal primary kidney cells): 12.5 µM
Selectivity index 15S ([5]; SI = IC50 in normal cell line (15S)/IC50 in this cell line, reference): 1
effect on primary normal kidney cells (15S) ([5]; even at a higher concentration (5 µmol/L)): no effect
ERK/MAP Kinase and PI3K/AKT signaling pathways (p-ERK, p-AKT) [7]: inhibited
